Measurements published in publication PMC9394284, “Discovery of Novel Dual Adenosine A2A and A1 Receptor Antagonists with 1H-Pyrazolo[3,4-d]pyrimidin-6-amine Core Scaffold as Anti-Parkinson’s Disease Agents” (Pharmaceuticals, 2022).

Columns and labels:
hA1 receptor = molecular target: T1, hA1 receptor (Homo sapiens, UniProt P30542); assay: radioligand binding to human A1 receptors, CHO-K1 membranes, [3H]DPCPX
T1 sequence (P30542 1-326): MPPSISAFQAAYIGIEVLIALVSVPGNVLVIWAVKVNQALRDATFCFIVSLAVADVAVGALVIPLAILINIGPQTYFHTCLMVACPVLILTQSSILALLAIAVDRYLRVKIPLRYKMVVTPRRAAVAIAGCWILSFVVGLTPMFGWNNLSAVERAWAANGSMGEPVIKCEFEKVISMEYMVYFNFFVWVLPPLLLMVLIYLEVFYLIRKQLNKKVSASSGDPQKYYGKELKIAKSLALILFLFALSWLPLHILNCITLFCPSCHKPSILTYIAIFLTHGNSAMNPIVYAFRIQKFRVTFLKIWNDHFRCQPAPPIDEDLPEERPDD
Protocol: The radioligand-binding assays for adenosine receptors were performed at Eurofins Discovery Services (Panlabs, Taiwan). Briefly, stock solutions of the compounds were prepared in DMSO and further diluted with the incubation buffer to the desired concentration. Final DMSO concentrations in the assay were 1.0%. For adenosine A1 screening, a 10 μg aliquots of membrane preparations from human recombinant CHO-K1 cells stably expressing A1 receptors (CHO-K1-hA1AR clone3, EPDST, R200510) were incubated with 1 nM [^3H]DPCPX in incubation buffer (20 mM HEPES, pH 7.4, 10 mM MgCl2, 100 mM NaCl 1.40 nM) for 90 min at 25 °C. Nonspecific binding was estimated in the presence of 100 μM R(-)-PIA. Membranes were filtered and washed 3 times and the filters were counted to determine specifically bound [^3H]DPCPX. Chemical compounds were screened at 10 μM. For A2A screening, membrane preparations from human recombinant HEK-293 cells stably expressing A2A receptors (PerkinElmer, RBHA2AM) were incubated with 0.05 μM [^3H]CGS-21680 in incubation buffer (50 mM Tris-HCl, pH 7.4, 10 mM MgCl2, 1 mM EDTA, 2 U/mL Adenosine Deaminase) for 90 min at 25 °C. Nonspecific binding was estimated in the presence of 50.0 μM NECA. Membranes were filtered and washed 3 times and the filters were counted to determine [^3H]CGS-21680 specifically bound. For A2B screening, membrane preparations from human recombinant HEK-293 cells stably expressing A2B receptors (PerkinElmer, ES-013-M) were incubated with 1.6 nM [^3H]MRS1754 in incubation buffer (50 mM Tris-HCl, pH 6.5, 5 mM MgCl2, 1 mM EDTA, 0.01 % Bacitracin) for 90 min at 25 °C. Nonspecific binding was estimated in the presence of 100 μM NECA. Membranes were filtered and washed 3 times and the filters were counted to determine [^3H]MRS1754 specifically bound. For A3 screening, membrane preparations from human recombinant CHO-K1 cells stably expressing A3 receptors (PerkinElmer, ES-012-M) were incubated with 0.5 nM [^125I]AB-MECA in incubation buffer (25 mM HEPES, pH 7.4, 5 mM MgCl2, 1 mM CaCl2, 0.1 % BSA) for 60 min at 25 °C. Nonspecific binding was estimated in the presence of 1.0 μM IB-MECA.
IC50 values were determined by a nonlinear, least-squares regression analysis using MathIQ^TM (ID Business Solutions Ltd., Guildford, UK). Where inhibition constants (Ki) were presented, the Ki values were calculated using Cheng and Prusoff equation [18] using the observed IC50 of the compound, the concentration of radioligand employed in the assay, and the historical values for the KD of the ligand (obtained experimentally at Eurofins Panlabs, Inc.). The Hill coefficient (nH), which defines the slope of the competitive binding curve, was calculated using MathIQ^TM.

[1] = metabolic stability in cryopreserved human hepatocytes
Protocol: Metabolic stability of 11o was determined in cryopreserved hepatocytes from mice, rats, dogs, monkeys and human according to the SOPs of Frontage Laboratories Inc. Briefly, cryopreserved hepatocytes for pre-clinical animals and for human (BioIVT, Westbury, NY, USA) were thawed in a 37 °C water bath with gentle shaking until ice had almost melted. The suspensions were immediately transferred to a centrifuge tube (50 mL) containing pre-warmed thawing media at 37 °C with gentle handshaking to prevent the cells from settling. Cell suspensions were centrifuged at 50× g and 4 °C for 5 min. The supernatant was discarded and the pellets were resuspended in prewarmed incubation media (5 mL) at 37 °C. The percentage of viable cells in the suspension was determined by Trypan blue staining method to ensure viability of ≥70 %. […] The samples were centrifuged and aliquots of the supernatant were analyzed for parent compounds by LC/MS/MS using suitable multiple reaction monitoring (MRM) transitions. […] The disappearance of 11o and midazolam was monitored by LC/MS/MS (MRM) analysis of the hepatocyte extracts at each time point. The peak area ratio of the analyte to internal standard was obtained for each sample and the rate of disappearance of 11o was assessed by comparing the peak area ratios at various time points to the peak area ratio obtained at t = 0. The t1/2 is obtained (using the linear portion of semi-log plot of the area ratio vs. time) and the CLint values determined using well-stirred model.

[2] = maximum tolerated dose, single oral administration, rat; conditions: both sexes, in vivo, single oral administration, male and female Sprague Dawley rats
Protocol: (§1) Rat and dog MTD studies were performed at Frontage Laboratories Inc following testing facility’s SOPs. All procedures described were reviewed and approved by the Institutional Animal Care and Use Committee (IACUC) at Frontage Laboratories Inc.
(§2) For rat MTD study, male and female Sprague Dawley rats (Rattus norvegicus) of 8.1~9.6 weeks of age were purchased from Charles River Laboratories, USA and maintained at standard food and water ad libitum in temperature-controlled room with 12 h on-off light cycle before the experiment. Animals were acclimated to the testing facility for at least 6 to 16 days prior to initiation of dosing. Animals received a single dose of 11o in 0.5% methyl cellulose via oral gavage starting from 150 mg/kg dose level (this initial dose level was selected based on available data and the estimated toxicity using EPA’s toxicity estimation software tool (TEST) version 4.2.1) in 10 mL/kg dose volume. Subsequent doses occurred 3 or 4 days following the previous dose and were increased based on findings from the previous dosing(s). The procedure continued until four dosing events occurred. Animals were observed once in the morning and once in the afternoon throughout the study for clinical observations. Body weights were measured on the day prior to dose administration. […]

Sprague Dawley rats = assay: as above; conditions: in vivo, po
Protocol: as §1, §2

[3] = average of duplicate experiments
[4] = human, cryopreserved hepatocytes in suspension

## Cc1cc(Cn2ncc3c(-c4cccc(C#N)c4F)nc(N)nc32)ccc1N [11o, 3-(6-Amino-1-(4-amino-3-methylbenzyl)-1H-pyrazolo[3,4-d]pyrimidin-4-yl)-2-fluorobenzonitrile]
hA1 receptor
  nH (Hill coefficient), A1: 1.17
hA1 receptor; [3]
  IC50: 94 nM
  Ki: 55 nM
[1]; human hepatocytes, 1 μM 11o
  Extrapolated Clearance, CL: 9.58 mL/min/kg
  Intrinsic Clearance: 0.00377 mL/min/10^6 Cells
[1]; [4]
  half-life at 1 μM: 3.07 h
  hepatocyte CLint at 1 μM: 3.8 µL/min/1e6 cells
[1]; human, cryopreserved hepatocytes in suspension, Extrapolated Clearance, CL, human hepatocytes, 1 μM 11o
  CLint scaled at 1 μM: 9.6 mL/min/kg
[1]; human, hepatocytes
  CLint in human hepatocytes relative to midazolam: less than 40 % of midazolam
[2]
  MTD: > 1000 mg/kg
Sprague Dawley rats
  body weight loss or mortality in rats: no body weight loss or mortality observed
